The test deals with L1210 leukemia ip in BDF1 mice, survival T/C. Nature of the test: NCI In Vivo Anticancer Drug Screen. Data for tumor model L1210 Leukemia (intraperitoneal) in B6D2F1 (BDF1) mice. The following applies: endpoint: mean survival time, higher = longer survival. The gist of the method: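 Read-out is survival time, reported as the treated-group measurement over the vehicle-control measurement.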

Setting [1] is: dose: 100.0 mg/kg/injection, schedule: Q04DX003 (ip), vehicle: saline.
Where [2] appears, read: dose: 200.0 mg/kg/injection, schedule: Q04DX003 (ip), vehicle: saline.
[3] abbreviates: dose: 100.0 mg/kg/injection, schedule: Q01DX001 (ip), vehicle: carboxymethylcellulose (CMC).
The mark [4] stands for this setting: dose: 100.0 mg/kg/injection, schedule: Q04DX002 (ip), vehicle: Klucel (hydroxypropylcellulose) (HPC).
Where [5] appears, read: dose: 200.0 mg/kg/injection, schedule: Q01DX001 (ip), vehicle: carboxymethylcellulose (CMC).
The mark [6] stands for this setting: dose: 200.0 mg/kg/injection, schedule: Q04DX002 (ip), vehicle: Klucel (hydroxypropylcellulose) (HPC).
Where [7] appears, read: dose: 400.0 mg/kg/injection, schedule: Q01DX001 (ip), vehicle: carboxymethylcellulose (CMC).
The mark [8] stands for this setting: dose: 400.0 mg/kg/injection, schedule: Q04DX002 (ip), vehicle: Klucel (hydroxypropylcellulose) (HPC).
Setting [9] is: dose: 100.0 mg/kg/injection, schedule: Q01DX001 (ip), vehicle: saline with Tween-80.
Where [10] appears, read: dose: 200.0 mg/kg/injection, schedule: Q01DX001 (ip), vehicle: saline with Tween-80.
The mark [11] stands for this setting: dose: 400.0 mg/kg/injection, schedule: Q01DX001 (ip), vehicle: saline with Tween-80.
Where [12] appears, read: dose: 100.0 mg/kg/injection, schedule: Q01DX001 (ip), vehicle: saline.
[13] abbreviates: dose: 200.0 mg/kg/injection, schedule: Q01DX001 (ip), vehicle: saline.
Setting [14] is: dose: 400.0 mg/kg/injection, schedule: Q01DX001 (ip), vehicle: saline.
[15] abbreviates: dose: 50.0 mg/kg/injection, schedule: Q01DX009 (ip), vehicle: Klucel (hydroxypropylcellulose) (HPC).
[16] abbreviates: dose: 100.0 mg/kg/injection, schedule: Q01DX009 (ip), vehicle: Klucel (hydroxypropylcellulose) (HPC).
[17] abbreviates: dose: 100.0 mg/kg/injection, schedule: Q04DX003 (ip), vehicle: Klucel (hydroxypropylcellulose) (HPC).
Setting [18] is: dose: 200.0 mg/kg/injection, schedule: Q04DX003 (ip), vehicle: Klucel (hydroxypropylcellulose) (HPC).
[19] abbreviates: dose: 400.0 mg/kg/injection, schedule: Q04DX003 (ip), vehicle: Klucel (hydroxypropylcellulose) (HPC).

Molecules are shown by their SMILES. Values joined by “and” are separate entries in the source; they are usually repeats but may differ in a detail not shown here. Equal entries are not always repeated. Toxic doses and inconclusive results are not listed.

`CCC1CN1CC1CO1` (stereo unspecified): the T/C by setting is: (dose: 4.0 mg/kg/injection, schedule: Q01DX Z (ip), vehicle: saline) 101 % of control; (dose: 7.0 mg/kg/injection, schedule: Q01DX Z (ip), vehicle: saline) 106 % of control; (dose: 10.0 mg/kg/injection, schedule: Q01DX Z (ip), vehicle: saline) 95 % of control; (dose: 33.0 mg/kg/injection, schedule: Q01DX Z (ip), vehicle: saline) 158 % of control and 196 % of control; (dose: 50.0 mg/kg/injection, schedule: Q01DX Z (ip), vehicle: saline) 123 % of control and 183 % of control and 218 % of control; (dose: 75.0 mg/kg/injection, schedule: Q01DX Z (ip), vehicle: saline) 120 % of control.

For `O=C(OCCN1CCCCC1)C(O)C1CCCCC1` (stereo unspecified), the T/C by setting is: under setting [1], 101 % of control; under setting [2], 103 % of control.

Regarding `CC(C)c1nc(CO)c(CO)n1Cc1ccccc1`, the T/C was 106 % of control under setting [3]; 93 % of control and 109 % of control (dose: 100.0 mg/kg/injection, schedule: Q01DX009 (ip), vehicle: carboxymethylcellulose (CMC)); 112 % of control under setting [4]; 93 % of control and 111 % of control (dose: 100.0 mg/kg/injection, schedule: Q04DX002 (ip), vehicle: carboxymethylcellulose (CMC)); 108 % of control under setting [5]; 106 % of control and 91 % of control (dose: 200.0 mg/kg/injection, schedule: Q01DX009 (ip), vehicle: carboxymethylcellulose (CMC)). Further, the T/C is, setting by setting: under setting [6], 102 % of control; (dose: 200.0 mg/kg/injection, schedule: Q04DX002 (ip), vehicle: carboxymethylcellulose (CMC)) 105 % of control and 88 % of control; under setting [7], 108 % of control; (dose: 400.0 mg/kg/injection, schedule: Q01DX009 (ip), vehicle: carboxymethylcellulose (CMC)) 106 % of control and 91 % of control; under setting [8], 102 % of control; (dose: 400.0 mg/kg/injection, schedule: Q04DX002 (ip), vehicle: carboxymethylcellulose (CMC)) 97 % of control and 90 % of control.

For the compound `BrC1C2C=CCC1CC2` (stereo unspecified), the T/C is 91 % of control (dose: 100.0 mg/kg/injection, schedule: Q01DX009 (ip), vehicle: saline); 96 % of control under setting [1]; 97 % of control (dose: 200.0 mg/kg/injection, schedule: Q01DX009 (ip), vehicle: saline); 96 % of control under setting [2]; 94 % of control (dose: 400.0 mg/kg/injection, schedule: Q01DX009 (ip), vehicle: saline); 94 % of control (dose: 400.0 mg/kg/injection, schedule: Q04DX003 (ip), vehicle: saline).

Consider `Nc1ncnc(N)c1NC(=O)c1ccc(OCCc2ccccc2)c(Cl)c1`, for which the T/C under setting [9] was 106 % of control, the T/C under setting [10] was 96 % of control and the T/C under setting [11] was 102 % of control.

On to `C=CCOCC(O)COP(=O)(O)O` (stereo unspecified), for which the T/C reads like this: (dose: 50.0 mg/kg/injection, schedule: Q01DX001 (ip), vehicle: saline) 113 % of control; under setting [12], 103 % of control; under setting [13], 107 % of control; under setting [14], 109 % of control.

For `Cn1[nH]cc(/C=N/C(N)=O)c1=O`, the T/C runs as follows: under setting [12], 93 % of control; under setting [13], 91 % of control; under setting [14], 87 % of control.

Regarding `ClC1=C(Cl)C(Cl)(Cl)C(Cl)(Cl)C1(Cl)Cl`, the T/C is 99 % of control (dose: 12.5 mg/kg/injection, schedule: Q01DX009 (ip), vehicle: saline); 92 % of control (dose: 25.0 mg/kg/injection, schedule: Q01DX009 (ip), vehicle: Klucel (hydroxypropylcellulose) (HPC)); 95 % of control (dose: 25.0 mg/kg/injection, schedule: Q01DX009 (ip), vehicle: saline); 96 % of control under setting [15]; 97 % of control (dose: 50.0 mg/kg/injection, schedule: Q01DX009 (ip), vehicle: saline); 87 % of control under setting [16]. The T/C by setting is: under setting [17], 104 % of control; under setting [18], 96 % of control; under setting [19], 102 % of control.

For `CCCCCCCCCCCCCC(CC1CCCCC1)CC1CCCCC1`, the T/C runs as follows: under setting [9], 103 % of control; under setting [10], 102 % of control; under setting [11], 100 % of control.

As to `CCOC(=O)NN(C)c1c(C)cccc1C`, the T/C runs as follows: (dose: 50.0 mg/kg/injection, schedule: Q01DX001 (ip), vehicle: Klucel (hydroxypropylcellulose) (HPC)) 96 % of control; (dose: 100.0 mg/kg/injection, schedule: Q01DX001 (ip), vehicle: Klucel (hydroxypropylcellulose) (HPC)) 106 % of control; (dose: 200.0 mg/kg/injection, schedule: Q01DX001 (ip), vehicle: Klucel (hydroxypropylcellulose) (HPC)) 104 % of control.

Turning to `C/C=C\c1ccc(OC(=O)Nc2cccc(Cl)c2)c(OC)c1`, the T/C is 101 % of control under setting [4], 95 % of control under setting [6] and 92 % of control under setting [8].

On to `O=C1CC(c2ccccc2)NN1c1ccccc1` (stereo unspecified), for which the T/C is, setting by setting: (dose: 50.0 mg/kg/injection, schedule: Q01DX009 (ip), vehicle: saline with Tween-80) 95 % of control and 97 % of control; (dose: 100.0 mg/kg/injection, schedule: Q01DX009 (ip), vehicle: saline with Tween-80) 100 % of control and 103 % of control; (dose: 100.0 mg/kg/injection, schedule: Q04DX002 (ip), vehicle: alcohol) 102 % of control; (dose: 200.0 mg/kg/injection, schedule: Q04DX002 (ip), vehicle: alcohol) 104 % of control; (dose: 400.0 mg/kg/injection, schedule: Q04DX002 (ip), vehicle: alcohol) 94 % of control.

On to `CC(=O)OC1CCC2(C)C(=CCC3C2CCC2(C)C(c4cccc(=O)o4)CCC32)C1` (stereo unspecified), for which the T/C was 100 % of control (dose: 100.0 mg/kg/injection, schedule: Q01DX001 (sc), vehicle: steriod suspending solution); 102 % of control (dose: 200.0 mg/kg/injection, schedule: Q01DX001 (sc), vehicle: steriod suspending solution); 93 % of control (dose: 400.0 mg/kg/injection, schedule: Q01DX001 (sc), vehicle: steriod suspending solution).

Consider `O=[N+]([O-])c1ccccc1N=Nc1c(O)[nH]c2cccc(C(F)(F)F)c12`, for which the T/C was 97 % of control (dose: 100.0 mg/kg/injection, schedule: Q01DX001 (ip), vehicle: acetone); 103 % of control under setting [12]; 97 % of control (dose: 200.0 mg/kg/injection, schedule: Q01DX001 (ip), vehicle: acetone); 97 % of control (dose: 400.0 mg/kg/injection, schedule: Q01DX001 (ip), vehicle: acetone); 87 % of control under setting [14].

As to `c1ccc(NC2=NCCCN2)cc1`, the T/C was 102 % of control (dose: 12.5 mg/kg/injection, schedule: Q01DX001 (ip), vehicle: saline with Tween-80); 97 % of control (dose: 25.0 mg/kg/injection, schedule: Q01DX001 (ip), vehicle: saline with Tween-80); 91 % of control (dose: 50.0 mg/kg/injection, schedule: Q01DX001 (ip), vehicle: saline with Tween-80).

For `O=C(Nc1cccc(C(F)(F)F)c1)Nc1ccc(Cl)c(Cl)c1`, the T/C is 96 % of control (dose: 50.0 mg/kg/injection, schedule: Q01DX001 (ip), vehicle: carboxymethylcellulose (CMC)); 102 % of control under setting [3]; 98 % of control under setting [5]; 113 % of control under setting [7].

Regarding `c1ccc(Cc2cncc(Cc3ccccc3)n2)cc1`, the T/C was 101 % of control under setting [17], 97 % of control under setting [18] and 98 % of control under setting [19].

For the compound `O=C(ONC1CCC(CC2CCCCC2)CC1)c1ccccc1` (stereo unspecified), the T/C reads like this: under setting [15], 102 % of control; under setting [16], 97 % of control; under setting [17], 97 % of control; under setting [18], 89 % of control.

In the case of `Cc1cc(OC(=O)Nc2cccc(Cl)c2)ccc1[N+](=O)[O-]`, the T/C reads like this: under setting [16], 101 % of control; under setting [17], 90 % of control; (dose: 200.0 mg/kg/injection, schedule: Q01DX009 (ip), vehicle: Klucel (hydroxypropylcellulose) (HPC)) 101 % of control; under setting [18], 95 % of control; under setting [19], 90 % of control.

The record behind these values is PubChem BioAssay AID248 (DTP/NCI, 2004).
